# According to patent USRE47141E1, “Methods of treating fibrosis, cancer and vascular injuries” (EWHA University—Industry Collaboration Foundation, priority 2010, dated 2018):
# Marks after values point to notes of the source that are not given here.
# What was measured:
# [1] = test system: BALB/c 4T1 xenografted mice; experiment: Anti-metastatic effect on BALB/c 4T1 xenografted mice model; type: in vivo; conditions: Example 3 13.6 or 27.3 mg/kg orally BID, four weeks; Example 2 5, 10, 20, or 40 mg/kg orally; Example 61 43.6 mg/kg intraperitoneally every other day, 2.5 weeks
# Protocol: Female BALB/c mice were purchased from Orient Bio Inc. (Seoul, Korea). Animals were maintained in a temperature-controlled room (22° C.) and supplied with food and water ad libitum. 4T1 cells (1.2×10^4 cells) were suspended in PBS and implanted into the left #4 mammary fat pad of five to six-week-old female BALB/c mice (day 0). In Experiment 1, treatment was started after tumor implantation (day 0). […] In Experiment 2, treatment was started on day 4. […] In Experiment 3, treatment was started on day 4. […] In Experiment 4, 4T1 cells (1×10^4 cells) were suspended in PBS and implanted into the left #4 mammary fat pad of ten-week-old female BALB/c mice (day 0). Treatment was started on day 10. Example 61 (43.6 mg/kg) dissolved in saline was given to mice intraperitoneally every other day for 2.5 weeks. In all Experiments, mice were sacrificed at 24 to 72 h after the last dosing, and 15% India ink solution (Hardy Diagnostics) in PBS was immediately injected into the trachea. […] Number of metastatic nodule was counted on the surface of left lobe of lung, and picture of lung was taken with digital camera. The tumor size was measured using calipers, and the tumor volume was calculated by using the following equation: Tumor volume=(0.5236)×(width)^2×(length)
# Either vehicle buffer (4 mM HCl, 1 mg/mL BSA) or TGF-β1 (50 ng/mouse) in vehicle buffer was given to mice intravenously at 2 h before mice were sacrificed. Tumor tissues from mice were lysed in RIPA buffer [50 mM Tris, pH 7.5, 150 mM NaCl, 0.1% sodium dodecyl sulfate, 0.5% sodium deoxycholate, 1% NP-40, 1 mM NaF, 1 mM Na3VO4, 1 mM PMSF, a protease inhibitor cocktail (1 tablet of Roche Diagnostics GmbH protease inhibitor cocktail/10 mL) (Roche)] for 20 min on ice. Lysates were cleared by centrifugation at 13000 rpm at 4° C. for 20 min. Protein content of supernatants was determined using Micro-BCA (bicinchoninic acid) protein assay kit (Thermo Scientific). Lysates containing 20-50 μg total protein were separated by electrophoresis on polyacrylamide gel and then electrophoretically transferred to polyvinylidene difluoride transfer membranes (Millipore, Billerica, Mass., USA). Membranes were blocked with 5% BSA (Sigma-Aldrich) in PBS containing 0.5% Tween-20 (PBST) for 1 h and incubated overnight at 4° C. with one of following antibodies: anti-phospho-Smad2 (Millipore), anti-Smad2/3 (BD Transduction Laboratories, NJ, USA), or anti-β-actin (Sigma-Aldrich) in PBST containing 1% BSA. […] Bound antibodies were detected using Western Blotting Luminol Reagent (SantaCruz Biotechnology). Band intensities were analyzed using a densitometer LAS-3000 imager (FUJIFILM, Tokyo, Japan).
# MMTV/c-Neu mice = experiment: Anti-metastatic effect on MMTV/c-Neu mice breast cancer model; type: in vivo; conditions: for β-casein mRNA expression level in the lung: 43.6 mg/kg intraperitoneally every other day, Example 61 three weeks, Example 3 ten weeks
# Protocol: Anti-metastatic Effect on MMTV/c-Neu mice breast cancer model MMTV/c-Neu female transgenic mice were purchased from Jackson Laboratory (Bar Harbor, Me., USA). Animals were maintained in a temperature-controlled SPF room (22° C.) and supplied with food and water ad libitum. In Experiment 1, Example 61 (43.6 mg/kg) dissolved in saline was given to thirty two-week-old MMTV/c-Neu mice intraperitoneally every other day for three weeks. […] Mice were sacrificed at 24 h after the last dosing, and tissues of mammary tumor and lung were analyzed by hematoxylin and eosin (H&E) staining To analyse β-casein mRNA level in tissues of mammary tumor and lung, total RNAs were isolated from these tissues using TRIzol reagent (Invitrogen Corporation) and RNeasy Mini kit (Qiagen) according to the manufacturer's instruction. The cDNAs were synthesized from 2 μg of total RNAs using random primer (Invitrogen Corporation) by MMLV RTase (Invitrogen Corporation) for 1 h at 37° C. and subjected to PCR amplification using Taq polymerase (Promega) and following gene-specific primers: mouse GAPDH (forward) 5′-[…]-3′ and (reverse) 5′-[…]-3′, mouse β-casein (forward) 5′-[…]-3′ and (reverse) 5′-[…]-3′. Amplified DNA was analyzed by agarose gel electrophoresis.
# Activity of MMP-9 and MMP-2 in the primary mammary tumor was measured by gelatin zymography. Tumor tissues from mice (30 mg) was lysed in 500 μL RIPA buffer (50 mM Tris, 150 mM NaCl, 0.1% sodium dodecyl sulfate, 0.5% sodium deoxycholate, 1% NP-40, protease inhibitor without EDTA) for 10-20 min on ice. Lysates were cleared by centrifugation at 13000 rpm at 4° C. for 10 min. Protein content of supernatants was determined using Micro-BCA protein assay kit (Thermo Scientific). Loading samples were prepared by adding loading buffer (0.5 M Tris, pH 6.8, 50% glycerol, 10% SDS, and 1% bromophenol blue solution) into lysates containing 15 μg of total protein. Loading samples were heated at 60° C. for 5 min and separated by electrophoresis on 10% polyacrylamide gel containing 0.2% gelatin. Gel was washed twice with washing buffer [2.5% Triton-X100, 0.05 M Tris-HCl, pH 7.5, and 0.1 M NaCl] for 30 min at room temperature. […] Gel image was obtained using a densitometer LAS-3000 imager (FUJIFILM) in cybergreen mode.
# [2] = test system: bile duct-ligated (BDL) rats; experiment: Anti-fibrotic effect on bile duct-ligated liver fibrosis model; type: in vivo; conditions: for Body weight / Organ weight Liver / Organ weight Liver/Body / Organ weight Spleen / Organ weight Spleen/Body: mean ± S.E.
# ALK5 = ALK5 (Homo sapiens (Human), UniProt P36897); experiment: Cell-free assay for inhibition of ALK5 kinase phosphorylation; type: biochemical; conditions: read-out: IC50 on ALK5 kinase phosphorylation
# ALK5, sequence (P36897 34-503): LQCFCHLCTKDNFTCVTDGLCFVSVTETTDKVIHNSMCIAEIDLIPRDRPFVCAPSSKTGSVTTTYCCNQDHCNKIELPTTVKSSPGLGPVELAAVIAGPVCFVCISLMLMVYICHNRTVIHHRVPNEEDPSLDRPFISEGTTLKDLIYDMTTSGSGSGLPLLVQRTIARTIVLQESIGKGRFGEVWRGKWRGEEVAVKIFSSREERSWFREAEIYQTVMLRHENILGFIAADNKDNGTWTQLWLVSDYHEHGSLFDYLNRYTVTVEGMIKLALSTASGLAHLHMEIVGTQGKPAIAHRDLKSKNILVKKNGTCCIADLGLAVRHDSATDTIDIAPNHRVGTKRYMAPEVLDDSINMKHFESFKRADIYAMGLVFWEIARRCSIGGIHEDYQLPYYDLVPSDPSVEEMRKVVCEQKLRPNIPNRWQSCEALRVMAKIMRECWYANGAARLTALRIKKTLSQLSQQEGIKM
# Protocol: ALK5 protein was expressed in Sf9 insect cells as human recombinant GST-fusion protein using the baculovirus expression system. Expressed protein was purified by affinity chromatography using GSH-agarose (Sigma-Aldrich). Kinase assay was performed in 96-well FlashPlates™ from Perkin Elmer (Boston, Mass., USA) in a 50 μL reaction volume. The reaction cocktail was pipetted in four steps in the following order: 20 μL of assay buffer (standard buffer), 5 μL of ATP solution in H2O, 5 μL of each test compounds of formula (I) in 10% DMSO, 10 μL of GSK3 (14-27) (200 ng)/10 μL of ALK5 solution (1 ng) (premixed). The reaction cocktail contained 60 mM HEPES-NaOH, pH 7.5, 3 mM MgCl2, 3 mM MnCl2, 3 Na3VO4, 1.2 mM DTT, 50 μg/mL PEG20000, 1 μM [γ-^33P]-ATP (approximately 2.5×10^5 cpm per well), 200 ng/10 μL GSK3 (14-27), and 1 ng/10 μL ALK5. The reaction cocktail was incubated at 30° C. for 60 min. The reaction was stopped with 50 μL of 2% (v/v) H3PO4, and plates were aspirated and washed two times with 200 μL 0.9% (w/v) NaCl. Assay was performed with a BeckmanCoulter Biomek 2000 robotic system. Incorporation of ^33Pi (counting of “cpm”) was determined with a microplate scintillation counter (Microbeta, Wallac).
# UUO rats = conditions: cited from earlier work
# [3] = test system: SBE-luc and GFAP-luc mice immunized with MOG35-55; conditions: cited from earlier work
# rats = conditions: cited from earlier work
# Tramp C2 = conditions: mice treated with murine prostate cancer cell line Tramp C2; cited from earlier work
# [4] = 43.6 mg/kg intraperitoneally every other day for ten weeks, gelatin zymography
# [5] = BDL rats, 21.8 mg/kg orally three times per week for four weeks
# [6] = BDL rats, 43.6 mg/kg orally three times per week for four weeks
# [7] = Sham-operated rats, 43.6 mg/kg orally three times per week for four weeks
# [8] = orally three times per week for four weeks, Example 2 5, 10, 20 mg/kg, Example 3 21.8, 43.6 mg/kg
# [9] = orally three times per week for four weeks, Western blot
smiles,measurement,setting,value
Cc1cccc(-c2[nH]c(CNc3ccccc3F)nc2-c2ccc3ncnn3c2)n1.Cl [Example 3],number of metastastic nodules on the lung,[1],significantly reduced
same,activity of MMP-2 in the primary mammary tumor,MMTV/c-Neu mice; [4],significantly inhibited
same,activity of MMP-9 in the primary mammary tumor,MMTV/c-Neu mice; [4],significantly inhibited
same,β-casein mRNA expression level in the lung,MMTV/c-Neu mice,significantly inhibited
same,Smad signaling in BDL rat liver (pSmad3),"[2]; 21.8 or 43.6 mg/kg orally three times per week for four weeks, Western blot",inhibited
same,Body weight,[2]; [5],340 ± 0.6 g
same,Organ weight Liver,[2]; [5],"16.4 ± 0.72**^,## g"
same,Organ weight Liver/Body,[2]; [5],"4.85 ± 0.26**^,## %"
same,Organ weight Spleen,[2]; [5],1.30 ± 0.07 g
same,Organ weight Spleen/Body,[2]; [5],"0.39 ± 0.03**^,## %"
same,Body weight,[2]; [6],335 ± 8.4 g
same,Organ weight Liver,[2]; [6],"16.1 ± 0.57**^,## g"
same,Organ weight Liver/Body,[2]; [6],"4.84 ± 0.26**^,## %"
same,Organ weight Spleen,[2]; [6],1.19 ± 0.09 g
same,Organ weight Spleen/Body,[2]; [6],"0.36 ± 0.03**^,## %"
same,Body weight,[2]; [7],354 ± 12.2 g
same,Organ weight Liver,[2]; [7],11.8 ± 0.71 g
same,Organ weight Liver/Body,[2]; [7],3.34 ± 0.12%
same,Organ weight Spleen,[2]; [7],0.81 ± 0.04 g
same,Organ weight Spleen/Body,[2]; [7],0.23 ± 0.01%
same,BDL-induced histological change,"[2]; liver, H&E staining",greatly abolished
same,body weight loss in BDL rats,[2]; [8],recovered
same,organ (liver and spleen) weight in BDL rats,[2]; [8],decreased
same,serum ALT in BDL rats,[2]; [8],improved
same,serum AST in BDL rats,[2]; [8],improved
same,fibronectin in BDL rat liver,[2]; [9],suppressed
same,vimentin in BDL rat liver,[2]; [9],suppressed
same,α-SMA in BDL rat liver,[2]; [9],suppressed
Cc1cccc(-c2[nH]c(CNc3cccc(C#N)c3)nc2-c2ccc3ncnn3c2)n1.Cl [Example 61],number of metastastic nodules on the lung,[1],significantly reduced
same,number of metastastic lesions in the lung,MMTV/c-Neu mice; 43.6 mg/kg intraperitoneally every other day for three weeks,significantly reduced
same,β-casein mRNA expression level in the lung,MMTV/c-Neu mice,significantly inhibited
"Cc1cccc(-c2[nH]c(Cc3cccc(C#N)c3)nc2-c2ccc3ncnn3c2)n1 [Example 145, 3-((4-([1,2,4]triazolo[1,5-a]pyridin-6-yl)-5-(6-methylpyridin-2-yl)-1H-imidazol-2-yl)methyl)benzonitrile]",IC50,ALK5,12.4 nM
"Cc1cccc(-c2[nH]c(Cc3cccc(C(N)=O)c3)nc2-c2ccc3ncnn3c2)n1 [Example 147, 3-((4-([1,2,4]triazolo[1,5-a]pyridin-6-yl)-5-(6-methylpyridin-2-yl)-1H-imidazol-2-yl)methyl)benzamide]",IC50,ALK5,40 nM
"Cc1cccc(-c2[nH]c(COc3ccccc3)nc2-c2ccc3ncnn3c2)n1 [Example 148, 6-(5-(6-methylpyridin-2-yl)-2-(phenoxymethyl)-1H-imidazol-4-yl)-[1,2,4]triazolo[1,5-a]pyridine]",IC50,ALK5,13.1 nM
"Cc1cccc(-c2[nH]c(COc3ccccc3F)nc2-c2ccc3ncnn3c2)n1 [Example 149, 6-(2-((2-fluorophenoxy)methyl)-5-(6-methylpyridin-2-yl)-1H-imidazol-4-yl)-[1,2,4]triazolo[1,5-a]pyridine]",IC50,ALK5,25.4 nM
"Cc1cccc(-c2[nH]c(COc3cccc(C#N)c3)nc2-c2ccc3ncnn3c2)n1 [Example 150, 3-((4-([1,2,4]triazolo[1,5-a]pyridin-6-yl)-5-(6-methylpyridin-2-yl)-1H-imidazol-2-yl)methoxy)benzonitrile]",IC50,ALK5,23.9 nM
"Cc1cccc(-c2[nH]c(COc3cccc(C(N)=O)c3)nc2-c2ccc3ncnn3c2)n1 [Example 151, 3-((4-([1,2,4]triazolo[1,5-a]pyridin-6-yl)-5-(6-methylpyridin-2-yl)-1H-imidazol-2-yl)methoxy)benzamide]",IC50,ALK5,22.5 nM
"Cc1cccc(-c2[nH]c(CSc3ccccc3)nc2-c2ccc3ncnn3c2)n1 [Example 152, 6-(5-(6-methylpyridin-2-yl)-2-(phenylthiomethyl)-1H-imidazol-4-yl)-[1,2,4]triazolo[1,5-a]pyridine]",IC50,ALK5,20.7 nM
Cc1cccc(-c2[nH]c(Cc3cccc(C(N)=O)c3)nc2-c2ccc3nccnc3c2)n1 [IN-1130],renal fibrosis induced by unilateral ureteral obstruction (UUO),UUO rats,effectively suppresses
same,experimental autoimmune encephalomyelitis (EAE),[3],ameliorates
same,penile curvature,rats,corrects
same,tunical fibrosis,rats,lessens
same,tumor volume,Tramp C2,dramatically reduces
